Measured values reported in patent publication US10350169B2, “Compositions and methods for bile acid particles” (UNIVERSITY OF UTAH RESEARCH FOUNDATION, priority 2014, dated 2019).

What was measured:
caco-2 cells = test: In vitro cellular uptake of insulin-Ce6 liposomes; format: cell-based, Human; settings: insulin-Ce6 10 ug/mL, 4 hr
Description: In vitro cellular uptake. Human epithelial colorectal adenocarcinoma cells (caco-2 cells) were maintained in Dulbeco's Modified Eagle's Medium (DMEM) with 1% penicillin-streptomycin and 10% FBS in a humidified standard incubator at 37° C. with a 5% CO2 atmosphere. Prior to testing, cells (1×10^5 cells/mL) that were grown as a monolayer were harvested via trypsinization using a 0.25% (wt/vol) trypsin/0.03% (wt/vol) EDTA solution. Caco-2 cells suspended in DMEM were seeded onto each well plate and cultured for 24 hours prior to the in vitro cell testing. The cellular uptake of the liposomes (provided in an amount equivalent to an insulin-Ce6 concentration of 10 ug/mL, treated for 4 hr) was monitored by FACSCalibur Flow Cytometer (Becton Dickinson, USA). In addition, the localization of the liposome was examined by fluorescence of the insulin-Ce6 loaded liposome using a confocal laser scanning microscope.

[1] = cited from earlier work
[2] = cited from earlier work; remark: listed apart in the source
HT-29 xenograft = test: In vivo therapeutic efficacy in tumor bearing animal model; parameters: species or system NOD/SCID mice; settings: oral, 10 mg/kg DOX, over 12 days
Description: In vivo therapeutic efficacy in a tumor bearing animal model. The in vivo anticancer efficacy of free DOX, the cationic DOX-loaded liposome without a bile acid coating (“DOX-liposome”), and the anionic DOX-loaded liposome with the CS-TCA coating (“DL/CS-TCA”) was evaluated in a xenograft mouse model. HT-29 cells (1×10^7 cells per mouse) were subcutaneously injected into the back of NOD/SCID mice (n=3). When the tumor size reached approximately 100-150 mm^3, each mouse received an oral administration of PBS, 10 mg/kg free DOX, 10 mg/kg DOX in the DOX-liposome composition, or 10 mg/kg DOX in the DL/CS-TCA composition, once every two days. Tumor size and body weight were measured every 2 days. Tumor volumes were measured with a digital caliper and the tumor volume was calculated using the equation shown below. Tumor volume=(Length×width^2)/2

[3] = test system: HepG2 xenograft mouse model; test: In vivo efficacy in tumor bearing animal model
Description: In vivo efficacy in a tumor bearing animal model. The in vivo anticancer efficacy of free DOX and the DDP/H-TCA composition was evaluated in a HepG2 xenograft mouse model. Animals which were treated with free DOX delivered via both orally and via IV administration were used as a control group, and DDP/H-TCA compositions were administered orally every 3 days at a dose of 4 mg DOX/kg, up to 18 days.
HepG2 cells (5×10^6 cells/mL) in 100 μL PBS were injected subcutaneously into the back of each mouse. When the tumor size reached approximately 100-150 mm^3, each mouse received an oral administration of PBS, 4 mg/kg DOX, or 4 mg/kg DOX in a DDP/H-TCA composition, once every three days. In addition, an equal amount of doxorubicin was intravenously (IV) administered in a control group. Tumors were measured every three days with a digital caliper and the tumor volume was calculated using the equation shown below.
To achieve a relatively high concentration, the lyophilized powder of DDP/H-TCA particles was reconstituted in DI water just prior to in vivo administration. First, the tumor growth inhibition efficacy of bile acid-coated DOX-loaded particles was investigated in a mouse xenograft model. Doxorubicin (DOX) at a dose of 4 mg/kg, or an equivalent amount of DOX formulated as DDP/H-TCA particles, was prepared and delivered via IV or oral administration every 3 days up to 18 days to monitor tumor progression. DOX-loaded particles without a bile acid (i.e. no TCA) were also tested as a non-targeted control formulation to evaluate the tumor inhibition efficacy of the TCA. Because tumors in the PBS control group were quite aggressive and reached over 10% of the animals' body weight around day 18, all treatments were terminated and all mice were sacrificed at day 18.

[4] = DOX biodistribution in tumor-bearing mice (DOX fluorescence); format: in vivo, HepG2 tumor-bearing NOD/SCID mice; settings: IV injection, 4 hr, versus orally administered groups
Description: Biodistribution. A biodistribution study was performed in HepG2 tumor-bearing NOD/SCID mice. The major organs and intestinal tract of each mouse were collected 4 hr after administration of the formulations. The liver, kidney, heart, stomach, small intestine including duodenum, jejunum, ileum, and tumor of each mouse was collected and suspended in 70% ethanol with 0.3 N HCl. The samples were then homogenized to extract the doxorubicin, and then the samples were refrigerated for 24 hr and centrifuged to collect supernatant. For analysis, 200 μL of the supernatant was loaded in a black opaque plate and DOX fluorescence was measured using a plate reader, where the wavelengths of excitation and emission were 470 and 590 nm, respectively.

HepG2 cells = test: In vitro cytotoxicity of polymers and DOX-loaded particles, MTT assay; format: cell-based, human; settings: 0.01-100 ug/mL, 24, 48 and 72 hr
Description: In vitro cytotoxicity of DOX-loaded particles. To evaluate the cytotoxicity of the polymers and DOX-loaded particles, samples were transfected in a dose-dependent manner and evaluated by an MTT-based cell viability assay using HepG2 cells. Cell Culture: HepG2 cells (a human hepatoma cell line) were cultured in DMEM supplemented with 10% FBS and D-glucose (4.5 g/L). Cells were grown and maintained under humidified air containing 5% CO2 at 37° C. Cell Viability: a MTT assay was used to evaluate the cell viability of bile acid-linked polymers and DOX-loaded particles. HepG2 cells were seeded into a 96-well plate at a cell density of 5×10^3 cells/well in 100 μL media. […] MTT (10 μL; 5 mg/mL) solution was then added to the wells and incubated for 4 hr. All remaining media was aspirated, and DMSO (100 μL) was added to dissolve the formazan crystals produced from living cells with 10 min incubation at 37° C. The absorbance of the cells was measured at 570 nm and their cell viability was calculated.

Compound | labeled insulin present in cells (caco-2 cells) | pKa [1] | oral bioavailability [2] | change in tumor volume (HT-29 xenograft) | relative body weight (HT-29 xenograft) | body weight ([3]; 4 mg DOX/kg every 3 days up to 18 days) | inhibition of tumor growth ([3]; IV, 4 mg/kg every 3 days, up to 18 days) | increase in tumor volume ([3]; oral, 4 mg DOX/kg every 3 days, up to 18 days) [%] | DOX concentration in heart and liver tissues [4] | cytotoxicity (cell viability) (HepG2 cells)
free insulin: Ce6-labeled insulin given without liposomes | relatively little labeled insulin present | – | – | – | – | – | – | – | – | –
COc1cccc2c1C(=O)c1c(O)c3c(c(O)c1C2=O)C[C@@](O)(C(=O)CO)C[C@@H]3O[C@H]1C[C@H](N)[C@H](O)[C@H](C)O1 [DOX, doxorubicin] | – | 7.2-8.0 | about 5% | not statistically better at reducing tumor volume than the buffer | decrease slightly | no significant weight loss | greatest inhibition of tumor growth | ~1400 | higher concentration of DOX was seen in the heart and liver tissues | highest dose-dependent cytotoxicity
